Assay results: ChEMBL document CHEMBL3045618, “Effect of seven new orchard pesticides on Galendromus occidentalis in laboratory studies” (2009)

Key:
Assay type in all cases: functional
Galendromus occidentalis [1] = experiment: Toxicity against Metaseiulus occidentalis adults in bean leaf disk infested with two-spotted spider mites assessed as average number of eggs laid (fecundity) at 0.3024 g AI/L treated using worst-case laboratory exposure procedure measured after 72 hr (reference value: 2.23/day)
Galendromus occidentalis [2] = experiment: Ovicidal activity against Metaseiulus occidentalis eggs in bean leaf disk infested with two-spotted spider mites assessed as corrected cumulative mortality at 240 g/L SC formulation treated using worst-case laboratory exposure procedure measured after 144 hr (reference value: 0.7%)
Galendromus occidentalis [3] = experiment: Toxicity against Metaseiulus occidentalis adults in bean leaf disk infested with two-spotted spider mites assessed as average number of eggs laid (fecundity) at 0.3024 g AI/L treated using worst-case laboratory exposure procedure measured after 24 hr (reference value: 2.11/day)
Galendromus occidentalis [4] = experiment: Toxicity against Metaseiulus occidentalis adults in bean leaf disk infested with two-spotted spider mites assessed as corrected mortality at 0.3024 g AI/L treated using worst-case laboratory exposure procedure measured after 72 hr
Galendromus occidentalis [5] = experiment: Toxicity against Metaseiulus occidentalis adults in bean leaf disk infested with two-spotted spider mites assessed as average number of eggs laid (fecundity) at 0.3024 g AI/L treated using worst-case laboratory exposure procedure measured after 48 hr (reference value: 2.30/day)
Galendromus occidentalis [6] = experiment: Toxicity against Metaseiulus occidentalis adults in bean leaf disk infested with two-spotted spider mites assessed as repellency at 0.3024 g AI/L treated using worst-case laboratory exposure procedure measured after 24 hr (reference value: 3.6%)
Galendromus occidentalis [7] = experiment: Toxicity against Metaseiulus occidentalis adults in bean leaf disk infested with two-spotted spider mites assessed as repellency at 0.3024 g AI/L treated using worst-case laboratory exposure procedure measured after 48 hr (reference value: 13.6%)
Galendromus occidentalis [8] = experiment: Toxicity against Metaseiulus occidentalis adults in bean leaf disk infested with two-spotted spider mites assessed as repellency at 0.3024 g AI/L treated using worst-case laboratory exposure procedure measured after 72 hr (reference value: 16.1%)
Galendromus occidentalis [9] = experiment: Toxicity against Metaseiulus occidentalis adults in bean leaf disk infested with two-spotted spider mites assessed as corrected mortality at 0.1600 g AI/L treated using worst-case laboratory exposure procedure measured after 72 hr
Galendromus occidentalis [10] = experiment: Toxicity against Metaseiulus occidentalis adults in bean leaf disk infested with two-spotted spider mites assessed as corrected mortality at 2x0.1600 g AI/L treated using worst-case laboratory exposure procedure measured after 72 hr
Galendromus occidentalis [11] = experiment: Toxicity against Metaseiulus occidentalis adults in bean leaf disk infested with two-spotted spider mites assessed as repellency at 0.1333 g AI/L treated using worst-case laboratory exposure procedure measured after 72 hr (reference value: 16.1%)
Galendromus occidentalis [12] = experiment: Toxicity against Metaseiulus occidentalis adults in bean leaf disk infested with two-spotted spider mites assessed as average number of eggs laid (fecundity) at 0.1333 g AI/L treated using worst-case laboratory exposure procedure measured after 72 hr (reference value: 2.23/day)
Galendromus occidentalis [13] = experiment: Toxicity against Metaseiulus occidentalis adults in bean leaf disk infested with two-spotted spider mites assessed as corrected mortality at 4x0.1600 g AI/L treated using worst-case laboratory exposure procedure measured after 72 hr
Galendromus occidentalis [14] = experiment: Ovicidal activity against Metaseiulus occidentalis eggs in bean leaf disk infested with two-spotted spider mites assessed as corrected cumulative mortality at 480 g/L SC formulation treated using worst-case laboratory exposure procedure measured after 144 hr (reference value: 0.7%)
Galendromus occidentalis [15] = experiment: Toxicity against Metaseiulus occidentalis adults in bean leaf disk infested with two-spotted spider mites assessed as average number of eggs laid (fecundity) at 0.1333 g AI/L treated using worst-case laboratory exposure procedure measured after 24 hr (reference value: 2.11/day)
Galendromus occidentalis [16] = experiment: Toxicity against Metaseiulus occidentalis adults in bean leaf disk infested with two-spotted spider mites assessed as average number of eggs laid (fecundity) at 0.1333 g AI/L treated using worst-case laboratory exposure procedure measured after 48 hr (reference value: 2.30/day)
Galendromus occidentalis [17] = experiment: Toxicity against Metaseiulus occidentalis adults in bean leaf disk infested with two-spotted spider mites assessed as repellency at 0.1333 g AI/L treated using worst-case laboratory exposure procedure measured after 48 hr (reference value: 13.6%)
Galendromus occidentalis [18] = experiment: Toxicity against Metaseiulus occidentalis adults in bean leaf disk infested with two-spotted spider mites assessed as repellency at 0.1333 g AI/L treated using worst-case laboratory exposure procedure measured after 24 hr (reference value: 3.6%)
Galendromus occidentalis [19] = experiment: Toxicity against Metaseiulus occidentalis adults in bean leaf disk infested with two-spotted spider mites assessed as average number of eggs laid (fecundity) at 0.1600 g AI/L treated using worst-case laboratory exposure procedure measured after 24 hr (reference value: 2.11/day)
Galendromus occidentalis [20] = experiment: Ovicidal activity against Metaseiulus occidentalis eggs in bean leaf disk infested with two-spotted spider mites assessed as corrected cumulative mortality at 250 g/kg WG formulation treated using worst-case laboratory exposure procedure measured after 144 hr (reference value: 0.7%)
Galendromus occidentalis [21] = experiment: Toxicity against Metaseiulus occidentalis adults in bean leaf disk infested with two-spotted spider mites assessed as repellency at 0.1600 g AI/L treated using worst-case laboratory exposure procedure measured after 72 hr (reference value: 16.1%)
Galendromus occidentalis [22] = experiment: Toxicity against Metaseiulus occidentalis adults in bean leaf disk infested with two-spotted spider mites assessed as average number of eggs laid (fecundity) at 0.1600 g AI/L treated using worst-case laboratory exposure procedure measured after 48 hr (reference value: 2.30/day)
Galendromus occidentalis [23] = experiment: Toxicity against Metaseiulus occidentalis adults in bean leaf disk infested with two-spotted spider mites assessed as repellency at 0.1600 g AI/L treated using worst-case laboratory exposure procedure measured after 48 hr (reference value: 13.6%)
Galendromus occidentalis [24] = experiment: Toxicity against Metaseiulus occidentalis adults in bean leaf disk infested with two-spotted spider mites assessed as average number of eggs laid (fecundity) at 0.1600 g AI/L treated using worst-case laboratory exposure procedure measured after 72 hr (reference value: 2.23/day)
Galendromus occidentalis [25] = experiment: Toxicity against Metaseiulus occidentalis adults in bean leaf disk infested with two-spotted spider mites assessed as repellency at 0.1600 g AI/L treated using worst-case laboratory exposure procedure measured after 24 hr (reference value: 3.6%)

Which Activity (Galendromus occidentalis [1]) does the source give for `CCC(C)(C)C(=O)OC1=C(c2ccc(Cl)cc2Cl)C(=O)OC12CCCCC2` [SPIRODICLOFEN] here?
The Activity was 1.43 day⁻¹.

And the mortality at 240000 µg/mL (stock) (Galendromus occidentalis [2])?
The mortality at 240000 µg/mL (stock) was 2.3%.

What about the Activity (Galendromus occidentalis [3]) of the same compound?
The Activity was 1.93 day⁻¹.

What about the mortality (Galendromus occidentalis [4]) of the same compound?
Its mortality is 2.1%.

What about the Activity (Galendromus occidentalis [5]) of the same compound?
The Activity was 1.83 day⁻¹.

And the Repellency (Galendromus occidentalis [6])?
The Repellency was 6.4%.

What about the Repellency (Galendromus occidentalis [7]) of the same compound?
The Repellency was 13.5%.

What about the Repellency (Galendromus occidentalis [8]) of the same compound?
The Repellency was 15.4%.

`N#C/N=C1\SCCN1Cc1ccc(Cl)nc1` [THIACLOPRID] was tested. Which mortality (Galendromus occidentalis [9]) did it give?
The mortality was 2.8%.

And the mortality (Galendromus occidentalis [10])?
Its mortality is 2.3%.

What about the Repellency (Galendromus occidentalis [11]) of the same compound?
Its Repellency is 49.4%.

What about the Activity (Galendromus occidentalis [12]) of the same compound?
The Activity was 1.58 day⁻¹.

What about the mortality (Galendromus occidentalis [13]) of the same compound?
The mortality was 5.8%.

And the mortality at 480000 µg/mL (stock) (Galendromus occidentalis [14])?
The mortality at 480000 µg/mL (stock) was 1.9%.

And the Activity (Galendromus occidentalis [15])?
The Activity was 1.64 day⁻¹.

And the Activity (Galendromus occidentalis [16])?
Its Activity is 1.26 day⁻¹.

And the Repellency (Galendromus occidentalis [17])?
Its Repellency is 44.9%.

What about the Repellency (Galendromus occidentalis [18]) of the same compound?
The Repellency was 12.2%.

With `CN1COCN(Cc2cnc(Cl)s2)/C1=N\[N+](=O)[O-]` [THIAMETHOXAM] as the compound, how does the Activity (Galendromus occidentalis [19]) read?
The Activity was 1.44 day⁻¹.

What about the mortality (Galendromus occidentalis [20]) of the same compound?
Its mortality is 4.3%.

And the mortality (Galendromus occidentalis [9])?
Its mortality is 8%.

What about the mortality (Galendromus occidentalis [10]) of the same compound?
Its mortality is 6.2%.

And the Repellency (Galendromus occidentalis [21])?
The Repellency was 41%.

And the Activity (Galendromus occidentalis [22])?
Its Activity is 0.33 day⁻¹.

What about the Repellency (Galendromus occidentalis [23]) of the same compound?
The Repellency was 34%.

What about the mortality (Galendromus occidentalis [13]) of the same compound?
Its mortality is 8.5%.

And the Activity (Galendromus occidentalis [24])?
The Activity was 0.58 day⁻¹.

And the Repellency (Galendromus occidentalis [25])?
Its Repellency is 5.1%.
